Among the test systems are 786-0; A549; BT-549; EKVX; HCC 2998; HCT-116; HCT-15; HT-29; Hs-578T; KM12; M14; MDA-N; NCI-H522; OVCAR-3; PC-3; RPMI-8226; SF-539; T47D; UO-31; NCI-H460.
Holding throughout (assay): inhibition of tumour cell growth, NCI panel, 48 h

Molecules are shown by their SMILES.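 Dose response: 5 concentrations. Exposure: 48 h. Format: 96-well plates. Endpoint: linear interpolation; highest concentration if not reached. GI50: concentration for 50% inhibition of growth.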 Activity calls are given as the source filed them. Rule as the data show it: active = GI50 up to about 1.1 µM and inactive = higher.

Regarding `O=C1NC(N2CCCCC2)=N/C1=C\c1ccccc1`, the GI50 in the assay with 786-0, with A549, in the assay with BT-549, in the assay with EKVX, with HCC 2998 and in the assay with HCT-116 was > 100 µM (inactive) in each case. For the same compound, the GI50 was greater than 100 µM in the assay on HCT-15; > 100 µM (inactive) with HT-29; > 100 µM (inactive) with Hs-578T; > 100 µM (inactive) with KM12; > 100 µM (inactive) in the assay on M14; > 100 µM (inactive) with MDA-N. Moreover, the GI50 in the assay with NCI-H522, in the assay with OVCAR-3, in the assay on PC-3, with RPMI-8226, with SF-539 and with T47D was > 100 µM (inactive) each time. For the same compound, the GI50 in the assay on UO-31 is > 100 µM (inactive).

Consider `CCN1CCN(c2ccc(Nc3ccnc4ccc5c(nnn5C)c34)cc2)CC1`, for which the GI50 was 3.86 µM (inactive) with 786-0; 7.83 µM (inactive) in the assay with A549; 17.3 µM (inactive) with BT-549; 13.7 µM (inactive) in the assay on EKVX; 1.58 µM (inactive) in the assay on HCC 2998; 3.44 µM (inactive) with HCT-116. In addition, the GI50 with HCT-15 is 3.95 µM; with HT-29, 3.72 µM (inactive); in the assay with Hs-578T it was 13.1 µM (inactive); in the assay with KM12 it was 3.51 µM (inactive); in the assay on M14, 10.7 µM (inactive); in the assay with MDA-N it was 3.52 µM (inactive). Further, the GI50 with NCI-H460 was 2.97 µM (inactive); in the assay with NCI-H522 it was 1.1 µM (active); in the assay with OVCAR-3 it was 5.56 µM (inactive); in the assay on PC-3, 5.28 µM (inactive); with SF-539, 2.98 µM (inactive); in the assay on T47D, 16 µM (inactive). Besides, the GI50 in the assay on UO-31 was 10.2 µM (inactive).

In the case of `Cc1cc(S(=O)(=O)NC2=Nc3cccc(F)c3CN2)c(S)cc1Cl`, the GI50 is 47.5 µM (inactive) in the assay on 786-0; 35.2 µM (inactive) with A549; > 100 µM (inactive) in the assay with BT-549; 75 µM (inactive) in the assay with EKVX; > 100 µM (inactive) with HCC 2998; 38.7 µM (inactive) with HCT-116. Also, the GI50 in the assay with HCT-15 was 69.5 µM; in the assay on Hs-578T it was > 100 µM (inactive); with KM12, 45.7 µM (inactive); in the assay with M14 it was 40 µM (inactive); in the assay with MDA-N it was 66.4 µM (inactive); in the assay on NCI-H460, 36.8 µM (inactive). Moreover, the GI50 was 52.6 µM (inactive) in the assay on NCI-H522; 63 µM (inactive) in the assay on OVCAR-3; 56.2 µM (inactive) in the assay with PC-3; 24.8 µM (inactive) in the assay with RPMI-8226; 84.1 µM (inactive) with SF-539; 28.1 µM (inactive) in the assay with T47D. The GI50 in the assay on UO-31 was 87.5 µM (inactive).

Turning to `[O-][S+](c1ccc(Cl)cc1)c1ccccc1C1=NCCN1` (stereo unspecified), the GI50 in the assay on 786-0, with A549, in the assay on BT-549, in the assay on EKVX, in the assay on HCC 2998 and with HCT-116 was > 100 µM (inactive) in each case. Also, the GI50 with HCT-15 was greater than 100 µM; in the assay on HT-29, > 100 µM (inactive); with Hs-578T, > 100 µM (inactive); in the assay with KM12, > 100 µM (inactive); with M14, > 100 µM (inactive); in the assay on MDA-N it was > 100 µM (inactive). Also, the GI50 in the assay on NCI-H460, in the assay with NCI-H522, in the assay with OVCAR-3, in the assay with PC-3, with RPMI-8226 and in the assay with T47D was > 100 µM (inactive) in each case. Besides, in the assay on UO-31, the GI50 was > 100 µM (inactive).

Take `Cc1cc2c(=O)[nH]nc(N)c2c(N)n1`: the GI50 in the assay with 786-0, in the assay with A549, in the assay with BT-549, with EKVX, in the assay with HCC 2998 and in the assay with HCT-116 was > 100 µM (inactive) in each case. In addition, the GI50 with HCT-15 was greater than 100 µM; in the assay on HT-29, > 100 µM (inactive); in the assay on Hs-578T it was > 100 µM (inactive); in the assay on KM12, > 100 µM (inactive); in the assay on M14, > 100 µM (inactive); with MDA-N, > 100 µM (inactive). The GI50 in the assay with NCI-H460, in the assay with NCI-H522, in the assay on PC-3, with RPMI-8226, in the assay with T47D and with UO-31 was > 100 µM (inactive) in each case.

Consider `COC(OC)C1(c2ccccc2)Oc2ccccc2C1=O` (stereo unspecified), for which the GI50 in the assay with 786-0 is > 100 µM (inactive); in the assay on A549 it was > 100 µM (inactive); in the assay with BT-549 it was 85.9 µM (inactive); in the assay with EKVX it was > 100 µM (inactive); in the assay with HCC 2998, > 100 µM (inactive); in the assay with HCT-116, > 100 µM (inactive). Further, the GI50 in the assay with HCT-15 was greater than 100 µM; with HT-29, > 100 µM (inactive); in the assay with Hs-578T it was > 100 µM (inactive); in the assay with KM12, > 100 µM (inactive); with M14, > 100 µM (inactive); in the assay with MDA-N, > 100 µM (inactive). Also, the GI50 in the assay with NCI-H460, in the assay with NCI-H522, in the assay on OVCAR-3, in the assay on PC-3, with RPMI-8226 and in the assay on SF-539 was > 100 µM (inactive) throughout. Moreover, the GI50 in the assay with T47D was > 100 µM (inactive).

`O=C1CC(=O)NC(NN2C(=O)/C(=C/C(=O)c3ccco3)N=C2c2ccccc2)=N1`: the GI50 in the assay on 786-0 was > 100 µM (inactive); in the assay with A549, > 100 µM (inactive); in the assay on BT-549 it was 36.6 µM (inactive); in the assay on HCC 2998, > 100 µM (inactive); in the assay with HCT-116, > 100 µM (inactive); with HCT-15, greater than 100 µM. The GI50 was > 100 µM (inactive) in the assay on HT-29; 27.7 µM (inactive) in the assay with Hs-578T; 30.5 µM (inactive) with KM12; 92.3 µM (inactive) in the assay on M14; 77.3 µM (inactive) in the assay on MDA-N; 30.3 µM (inactive) in the assay with NCI-H460. For the same compound, the GI50 with NCI-H522 is 17.7 µM (inactive); with OVCAR-3, 42.4 µM (inactive); in the assay with PC-3, 29.4 µM (inactive); in the assay on SF-539 it was 44.1 µM (inactive); in the assay with T47D it was 70.1 µM (inactive); in the assay with UO-31, 57.8 µM (inactive).

On to `CCOC(=O)c1ccc(C(=O)C(C(C)=O)C(=O)OC(C)(C)C)n1C` (stereo unspecified), for which the GI50 in the assay on 786-0, with A549, with BT-549, with EKVX, in the assay with HCC 2998 and in the assay with HCT-116 was > 100 µM (inactive) each time. The GI50 with HCT-15 was greater than 100 µM; in the assay on HT-29 it was > 100 µM (inactive); in the assay with Hs-578T it was > 100 µM (inactive); in the assay with KM12 it was > 100 µM (inactive); in the assay with M14, > 100 µM (inactive); with MDA-N, > 100 µM (inactive). For the same compound, the GI50 in the assay on NCI-H460, in the assay on NCI-H522, with OVCAR-3, in the assay with PC-3, with RPMI-8226 and with T47D was > 100 µM (inactive) in each case. For the same compound, the GI50 in the assay with UO-31 is > 100 µM (inactive).

Take `C/C=C1\C(=O)OC2CCN3CCC(COC(=O)C(C)(O)C(C)C1O)C23` (stereo unspecified): the GI50 in the assay with 786-0, in the assay on A549, with BT-549, with EKVX, in the assay with HCC 2998 and in the assay on HCT-116 was > 100 µM (inactive) each time. Moreover, the GI50 with HCT-15 is greater than 100 µM; in the assay with HT-29, > 100 µM (inactive); with Hs-578T it was > 100 µM (inactive); with KM12, > 100 µM (inactive); in the assay with M14, > 100 µM (inactive); with MDA-N it was > 100 µM (inactive). Moreover, the GI50 in the assay on NCI-H460, in the assay on NCI-H522, with PC-3, in the assay with SF-539, in the assay with T47D and with UO-31 was > 100 µM (inactive) throughout.

`COC(=O)[C@H](CC(C)C)NC1=C(Cl)C(=O)c2c(O)ccc(O)c2C1=O`: the GI50 is 6.97 µM (inactive) in the assay on 786-0; 7.24 µM (inactive) in the assay with A549; > 10 µM (inactive) with BT-549; > 10 µM (inactive) in the assay on EKVX; > 10 µM (inactive) in the assay with HCC 2998; 2.46 µM (inactive) in the assay on HCT-116. The GI50 in the assay with HCT-15 is 3.05 µM; with HT-29 it was 3.01 µM (inactive); in the assay on Hs-578T, > 10 µM (inactive); in the assay with KM12, 6.43 µM (inactive); in the assay with M14, 3.45 µM (inactive); in the assay on MDA-N, 8.73 µM (inactive). Besides, the GI50 in the assay on NCI-H460 is > 10 µM (inactive); in the assay with NCI-H522, > 10 µM (inactive); with OVCAR-3, 1.73 µM (inactive); with PC-3 it was > 10 µM (inactive); in the assay on RPMI-8226 it was 4.81 µM (inactive); in the assay on SF-539, 9.02 µM (inactive). For the same compound, the GI50 with T47D was > 10 µM (inactive).

Turning to `O=c1c2ccccc2nc(-c2ccccc2)n1/N=C/c1ccccc1[N+](=O)[O-]`, the GI50 was 21.9 µM (inactive) in the assay on 786-0; > 100 µM (inactive) in the assay with A549; 31.3 µM (inactive) with BT-549; > 51.1 µM (inactive) in the assay with EKVX; > 100 µM (inactive) with HCC 2998; 40.5 µM (inactive) in the assay on HCT-116. Besides, the GI50 in the assay with HCT-15 was greater than 100 µM; with HT-29, > 100 µM (inactive); in the assay with Hs-578T, 1.59 µM (inactive); in the assay on KM12 it was 57.4 µM (inactive); in the assay with M14, > 100 µM (inactive); with MDA-N, > 100 µM (inactive). The GI50 was > 91.2 µM (inactive) with NCI-H460; > 53.2 µM (inactive) in the assay with NCI-H522; > 100 µM (inactive) in the assay with OVCAR-3; > 100 µM (inactive) in the assay on PC-3; > 100 µM (inactive) in the assay with RPMI-8226; 19.9 µM (inactive) in the assay on SF-539. In the assay with T47D, the GI50 was 86.9 µM (inactive).

The values are drawn from ChEMBL document CHEMBL1201862, “PubChem BioAssay data set” (2004).
